Measured values from patent publication US11535627B2, “Pyrimidine derivative compound, pharmaceutically acceptable salt thereof, preparation process thereof, and pharmaceutical composition using the same” (Spark Biopharma, Inc., priority 2016, dated 2022).

Tests used:
LRS-RagD interaction = LRS-RagD interaction (Homo sapiens, UniProt Q9P2J5); experiment: ELISA of LRS-RagD interaction; format: binding
Procedure: His-tagged human LRS proteins were diluted in carbonate buffer (100 mM, pH 9.6) to the concentration of 0.5 ng μl^−1. […] Protein from each well was removed and washed three times with PBS mixed with 0.05% Tweed® 20 (PBST), subjected to blocking with PBS containing 5% bovine serum albumin (BSA) for 2 hours. Each well was washed with PBST, followed by the treatment of a compound and GST-tagged human RagD protein simultaneously for 3 hours. GST protein itself was used as a negative control. Each well was treated with GST antibody diluted in PBST and incubated at room temperature for 1 h. After washing with PBST, the HRP-conjugated anti-horse IgG secondary antibody was incubated at room temperature for 1 h. TMB was added to each well for colorimetric development. […] To stop the chemical reaction, the treatment with 1 m H3PO4 was done. Finally, absorbance at 450 nm were measured.

Human LRS proteins = molecular target: T1, Human LRS proteins (Homo sapiens, UniProt Q9P2J5); experiment: Surface plasmon resonance (SPR) binding to LRS; settings: purified LRS
T1 construct: His
Procedure: The dissociation […] constant (KD) toward His-LRS proteins was determined by using SPR instrument (Biacore T100) at the national center for inter-university research facilities (NCIRF) in Seoul National University. The carboxyl group on the surface of CMS chip was able to be replaced with protein by forming reactive succinimide ester with 1-ethyl-3-(3-dimethylaminopropyl)-carbodiimide (EDC) and N-hydroxysuccinimide (NHS). Human LRS proteins (1.5×PBS, pH 7.3) were immobilized on flow cell 2 (imed RU; 12000) by leading to amide bond formation with NHS ester. The residual NHS ester was quenched with 1 M ethanolamine-HCl (pH 8.0). Amide bond formation alone, without any protein t, was performed on flow cell 1 as a control. The immobilization process was proceeded on PBS buffer. After the immobilization of hLRS, compounds were flowed for 60 s at a flow rate of 20 μl min^−1 in various concentrations from 1 μM to […] was then flowed at the same flow rate for 200 s for dissociation of compounds. As a running buffer, 1×PBS (pH 7.3) containing 3% DMSO and 0.005% P2O was used. The experiment was performed at 25° C. Data analysis was done by using Biacore T100 Evaluation software. […] The dissociation constant (KD) was calculated by fitting to the 1:1 binding model.

Sequence of LRS-RagD interaction (Q9P2J5 whole entry): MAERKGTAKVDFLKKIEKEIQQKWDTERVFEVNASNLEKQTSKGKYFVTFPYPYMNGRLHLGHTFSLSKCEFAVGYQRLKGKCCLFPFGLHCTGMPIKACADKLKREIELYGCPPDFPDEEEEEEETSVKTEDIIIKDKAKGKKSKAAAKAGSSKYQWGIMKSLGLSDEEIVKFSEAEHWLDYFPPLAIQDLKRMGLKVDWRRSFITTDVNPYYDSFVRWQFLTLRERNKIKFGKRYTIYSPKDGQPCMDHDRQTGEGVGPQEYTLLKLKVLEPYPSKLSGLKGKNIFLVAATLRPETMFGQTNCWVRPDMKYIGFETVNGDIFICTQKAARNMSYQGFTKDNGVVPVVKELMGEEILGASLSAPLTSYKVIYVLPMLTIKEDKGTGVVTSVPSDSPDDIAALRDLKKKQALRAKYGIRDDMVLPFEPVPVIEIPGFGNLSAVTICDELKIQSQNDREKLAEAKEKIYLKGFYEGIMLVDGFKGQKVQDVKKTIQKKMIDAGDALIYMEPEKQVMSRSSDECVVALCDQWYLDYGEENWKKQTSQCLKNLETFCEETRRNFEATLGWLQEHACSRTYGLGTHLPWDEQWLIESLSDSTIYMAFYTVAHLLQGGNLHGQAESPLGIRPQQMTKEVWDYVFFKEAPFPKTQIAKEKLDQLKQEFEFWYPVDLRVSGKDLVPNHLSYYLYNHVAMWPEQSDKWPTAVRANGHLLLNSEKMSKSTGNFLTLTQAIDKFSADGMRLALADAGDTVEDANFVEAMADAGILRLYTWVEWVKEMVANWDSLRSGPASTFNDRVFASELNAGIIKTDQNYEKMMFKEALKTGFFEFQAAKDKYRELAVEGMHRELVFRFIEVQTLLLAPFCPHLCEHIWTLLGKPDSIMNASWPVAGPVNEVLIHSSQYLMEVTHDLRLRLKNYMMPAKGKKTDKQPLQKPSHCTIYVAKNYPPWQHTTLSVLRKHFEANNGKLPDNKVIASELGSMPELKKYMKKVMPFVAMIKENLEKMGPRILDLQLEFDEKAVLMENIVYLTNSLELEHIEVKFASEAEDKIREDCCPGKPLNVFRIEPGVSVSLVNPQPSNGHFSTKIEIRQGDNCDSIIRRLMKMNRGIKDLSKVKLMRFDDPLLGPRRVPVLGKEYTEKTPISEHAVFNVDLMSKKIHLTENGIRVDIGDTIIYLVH
T1 sequence (Q9P2J5 whole entry): as above

Row | Compound | melting point [°C] | dose-dependent inhibition of the LRS-RagD interaction (dose-response curves in ELISA) (LRS-RagD interaction) | concentration-dependent binding to LRS (SPR) (Human LRS proteins)
1 | CN(Cc1ccccc1)c1ncnc2c1[C@@H]1OC[C@H](CN2)N1S(=O)(=O)c1cccc([N+](=O)[O-])c1 | 101 to 103 |  | 
2 | CN(Cc1ccccc1)c1ncnc2c1C1OC[C@@H](CN2)N1C(=O)OC(C)(C)C [Compound 14f] |  | did not inhibit the LRS-RagD interaction in a dose-dependent manner | did not bind to LRS in a concentration-dependent manner
3 | CN(Cc1ccccc1)c1ncnc2c1[C@@H]1OC[C@H](CN2)N1C(=O)NCc1ccccc1 [Compound 15f] | 67 to 69 | did not inhibit the LRS-RagD interaction in a dose-dependent manner | 
4 | CN(Cc1ccccc1)c1ncnc2c1CN1[C@@H](CN2)COCS1(=O)=O [Compound 18f] | 196 to 198 | did not inhibit the LRS-RagD interaction in a dose-dependent manner | 
5 | CN(Cc1ccccc1)c1ncnc2c1CN1C(=O)COC[C@@H]1CN2 [Compound 19f] |  | did not inhibit the LRS-RagD interaction in a dose-dependent manner | did not bind to LRS in a concentration-dependent manner
